Experimental data taken from patent publication US20210260141A1, “MSC- AND EXOSOME-BASED IMMUNOTHERAPY” (EXOSTEM BIOTEC LTD., priority 2018, published 2021).

Assays:
Type in all cases: cell-based
[1] = system: glioma stem cells (GSCs); experiment: self-renewal of GSCs (secondary neurosphere formation) after coculture with MSCs or addition of their exosomes; conditions: trans-well coculture
[2] = system: 3′ UTR of PD-L1; experiment: PD-L1 3′ UTR luciferase reporter in GSCs cocultured with MSCs or treated with their exosomes; conditions: pre-miR expressed in CH-, AD- and UC-MSCs, trans-well coculture with GSCs
[3] = system: PD-1 3′ UTR; experiment: PD-1 3′ UTR luciferase reporter in HEK293 cells; conditions: miR transfected in CH-MSCs; same whether cocultured or exosomes added
Experimental: PD-L1 is only half of the immune surveillance axis, its receptor PD-1 is expressed on immune cells and is required for cancer cell immune inhibition. […] CH-MSCs were also transfected with miR-124, miR-34, miR-30b and a combination of all three and then PD-1 expression was assessed. […] The effect was the same whether cells were cocultured, or whether exosomes were added. miR-34 has already been reported to target PD-L1, thus this miR and miR-124 are both effective at targeting both sides of the PD-L1/PD-1 axis.

[4] = miR expressed in CH- and UC-MSCs

Molecule: miR-29c: microRNA; pre-miR SEQ ID NO: 4, mature 5p SEQ ID NO: 5, 3p SEQ ID NO: 6 (ACCGAUUUCUCCUGGUGUUCAGAGUCUGUUUUUGUCUAGCACCAUUUGAAAUCGGUUA; expressed or natural sequence; listed as Homo sapiens)
- effect on self-renewal of GSCs ([1]; miR expressed in AD-MSCs): more pronounced effect
- effect on self-renewal of GSCs [1, 4]: negligible effect
- luciferase expression (PD-L1 reporter) [2]: decreased luciferase expression

Molecule: miR-30b: microRNA; pre-miR SEQ ID NO: 13, mature 5p SEQ ID NO: 14, 3p SEQ ID NO: 15 (UGUAAACAUCCUACACUCAGCUGUAAUACAUGGAUUGGCUGGGAGGUGGAUGUUUACUUC; expressed or natural sequence; listed as Homo sapiens)
- effect on PD-1 reduction (luciferase reporter) [3]: enhanced the PD-1 reduction

Molecule: miR-378: microRNA; pre-miR SEQ ID NO: 32, mature 5p SEQ ID NO: 33, 3p SEQ ID NO: 34 (CUCCUGACUCCAGGUCCUGUGUGUUACCUAGAAAUAGCACUGGACUUGGAGUCAGAAGGC; expressed or natural sequence; listed as Homo sapiens)
- effect on self-renewal of GSCs ([1]; miR expressed in AD-MSCs): more pronounced effect
- effect on self-renewal of GSCs [1, 4]: negligible effect
- luciferase expression (PD-L1 reporter) [2]: decreased luciferase expression

B1: miR-34: microRNA; pre-miR SEQ ID NO: 10, mature 5p SEQ ID NO: 11, 3p SEQ ID NO: 12 (nucleic acid, listed as Homo sapiens)
chain: UGGCAGUGUCUUAGCUGGUUGUUGUGAGCAAUAGUAAGGAAGCAAUCAGCAAGUAUACUGCCCUA
modifications: expressed or natural sequence
- effect on PD-1 reduction (luciferase reporter) [3]: enhanced the PD-1 reduction
